The values below come from patent publication US4202876A, “Investigating body function” (The Radiochemical Centre Limited, priority 1977, dated 1980).

Data set [1] in a line: Biliary collection of 75Se radioactivity after intravenous injection, bile-cannulated rabbit. Format: in vivo. The protocol:
A male rabbit (NZW×LOP; 4.8 kg) was anaesthetized with sodium pentobarbitone ("Sagatal"), intravenously injected. A tracheotomy was performed and into a jugular vein was inserted a cannula with a 3-way tap. The animal was ventilated by intermittent positive pressure and anaesthesia maintained by intravenous administration of pentobarbitone as required. A midline ventral incision was made in the abdominal wall and the liver reflected to reveal the gall bladder, cystic duct and the common bile duct. After ligation of the cystic duct the common bile duct was cannulated for the collection of bile.
After a period of stabilization 1 ml of a solution of 19-methyl-[^75 Se]selenocholesterol (0.01 mg; 12 mCi) in polysorbate/normal saline was injected via the jugular cannula. Bile was collected as a series of 15-minute samples in preweighed tubes. After collection each sample was weighed and counted for ^75 Se radioactivity. The flow of bile, initially at 3.4 ml/15 minutes, declined to 1.5 ml/15 minutes after 61/2 hours. During this period 56.65 g of bile was collected containing approximately 100 μCi of ^75 Se radioactivity (about 1 percent of the injected dose).

Data set [2] can be described thus: Intravenous administration to humans with the object of adrenal visualisation. The data set is classed as in vivo, human. The source says: It was surmised that 19-methyl-^75 Se selenocholesterol was being converted to analogues of bile salts in which a methylseleno group was attached to the C19 carbon atom.
Data set [3] can be described thus: Tissue distribution studies in rats after oral administration. Conditions: for whole body retention by tissue distribution (dissection): at the end of 8 days. The data set is classed as in vivo, rat. The protocol:
The pattern of tissue distribution is similar for all the compounds. At 20 hours the ^75 Se radioactivity is largely confined to the liver, gut and faeces; apart from compounds iii and iv less than 5 percent of the radioactivity is distributed among other organs.

Data set [4] is described as follows: Whole-body excretion studies in rats after oral administration (whole-body counts, bi-exponential fit). The following applies: for b (amplitude of second component) / c (constant; percentage predicted as never being excreted) / x (rate constant of first component) / y (rate constant of second component): Retention(t)=ae^-xt+be^-yt+c; for a (amplitude of first component, Retention(t)=ae^-xt+be^-yt+c): whole-body retention as % of initial counts, 6-8 days. The data set is classed as in vivo, rat. The protocol:
Whole-body excretion studies in rats over a period of 8 days after oral administration of compounds i to viii indicate that excretion is delayed with respect to a non-absorbable radioactive maker, ^131 I-polyvinylpyrollidone.
For each of the eight compounds under investigation, approximately 10-15 μCi was administered via an intragastric tube to rats. Whole-body counts were determined immediately after administration and at intervals during the following 6-8 days. A whole-body standard permitted corrections for radioactive decay and variations in counter efficiency.
Whole-body retention is expressed as a percentage of the counts determined immediately after administration.
Retention (t)=ae^-xt +be^-yt +c (1)

The nature of data set [5]: Clinical whole-body counting of 75Se retention after oral administration. The data set is classed as in vivo, human. The following applies: for Retention of Selenium-75 Radioactivity: oral approx. 1 μCi. On the procedure:
Approximately 1 μCi of compound ii was given orally as a drink in water to four adult volunteers, two of them being normal active adult males, 35-50 years of age, and two who had received a total ileal resection more than 10 years previously. All were on a normal diet. Se-ii was administered between 10.00 am and 12 noon. Body radioactivity was then measured in a whole-body counter immediately after administering the ^75 Se-ii and subsequently at 48 hours and 7 days.

The nature of data set [6]: Biliary excretion studies in rats, oral mixture of 75Se-seleno bile acid and 14C-cholic acid. The data set is classed as in vivo, rat. On the procedure: Measurement of the ratio of the ^14 C/^75 Se radioactivity collected in a 24 hour bile sample to the ^14 C/^75 Se radioactivity administered orally gives an indication of the efficiency of absorption of the seleno bile acid as compared to ^14 C-cholic acid. Ideally, when these absorptions are the same the ratio would be 1, but as the efficiency of the adsorption seleno bile acid diminishes the ratio increases.

Setting [7] is: at 20 hours, relative to the other compounds.

With `C[75Se]C[C@]12CC[C@H](O)CC1=CC[C@@H]1[C@@H]2CC[C@]2(C)[C@@H]([C@H](C)CCCC(C)C)CC[C@@H]12` [19-methyl-[^75 Se]selenocholesterol], the “75Se radioactivity collected in bile (of injected dose)” value in data set [1] (i.v. via jugular cannula, bile collected 6 1/2 hours, 390 min) was “about 1%”. Besides, the “75Se radioactivity collected in bile” value in data set [1] (i.v., 12 mCi injected, 56.65 g bile over 6 1/2 hours) was “approximately 100 μCi”. In data set [2], the “localisation of selenium-75 radioactivity” value is given as “concentrated in the enterohepatic system” and the “metabolism compared with cholesterol” value is “appeared to parallel that of cholesterol”.

`C[C@H](C[75Se]CC(=O)O)[C@H]1CC[C@H]2[C@@H]3CC[C@@H]4C[C@H](O)CC[C@]4(C)[C@H]3C[C@H](O)[C@]12C` [Compound ii, 3α,12α-dihydroxy-22-(carboxymethyl-[^75 Se]seleno)-23,24-bisnor-5β-cholane]: the “75Se radioactivity in the faeces” value in data set [3] (setting [7]) was “a very much small percentage of ^75 Se radioactivity in the faeces”. In addition, in data set [3] (setting [7]), the “75Se radioactivity in the small bowel” value is on record as “a correspondingly larger proportion in the small bowel”. Moreover, the “b (amplitude of second component)” value in data set [4] is 27.6%. Besides, the “c (constant; percentage predicted as never being excreted)” value in data set [4] is listed as 3.36%. For the same compound, the “x (rate constant of first component)” value in data set [4] was 2.29 day⁻¹. Besides, in data set [4], the “y (rate constant of second component)” value is 0.65 day⁻¹. Further, the “a (amplitude of first component, Retention(t)=ae^-xt+be^-yt+c)” value in data set [4] amounted to 190%. Besides, the “Retention of Selenium-75 Radioactivity” value in data set [5] (Ileal resection (3), 0 h) came out at 100%; in data set [5] (Ileal resection (3), 48 hrs.) it was 26%; in data set [5] (Ileal resection (3), 7 days) it was 7.5%; in data set [5] (Ileal resection (4), 0 h, patient on drugs to slow bowel transfer), 100%; in data set [5] (Ileal resection (4), 48 hrs., patient on drugs to slow bowel transfer) it was 80%; in data set [5] (Ileal resection (4), 7 days, patient on drugs to slow bowel transfer), 9.5%. Besides, the “Retention of Selenium-75 Radioactivity” value in data set [5] (Normal (1), 0 h) turned out to be 100%; in data set [5] (Normal (1), 48 hrs.), 80%; in data set [5] (Normal (1), 7 days), 31%; in data set [5] (Normal (2), 0 h) it was 100%; in data set [5] (Normal (2), 48 hrs.), 100%; in data set [5] (Normal (2), 7 days), 27%. The “rate of elimination from the body” value is reported as “this rate of elimination is increased” in data set [5] (humans who have suffered an ileal resection) and “considerably slower than it is for rats” in data set [5] (normal humans, compared with rats).

As for `C[C@H](CC[75Se]CCC(=O)O)[C@H]1CC[C@H]2[C@@H]3[C@H](O)C[C@@H]4C[C@H](O)CC[C@]4(C)[C@H]3CC[C@]12C` [iii, 3α,7α-dihydroxy-23-(β-carboxyethyl-[^75 Se]seleno)-24-nor-5β-cholane], in data set [6] (24 h bile, 14C-cholic acid internal marker, 1 = absorption same as cholic acid), the “ratio of 14C/75Se radioactivity in 24 hour bile sample to 14C/75Se administered orally” value is given as 54. For the same compound, the efficiency of absorption result in data set [6] (compared to 14C-cholic acid) is “very much reduced absorption”. In data set [4], the “b (amplitude of second component)” value is recorded as 37.5%, the “c (constant; percentage predicted as never being excreted)” value was 4.0%, the “x (rate constant of first component)” value stood at 2.31 day⁻¹ and the “y (rate constant of second component)” value came out at 0.53 day⁻¹. The “a (amplitude of first component, Retention(t)=ae^-xt+be^-yt+c)” value in data set [4] is 170%.

`C[C@H](CC[75Se]CCC(=O)O)[C@H]1CC[C@H]2[C@@H]3[C@H](O)C[C@@H]4C[C@H](O)CC[C@]4(C)[C@H]3C[C@H](O)[C@]12C` [iv, 3α,7α,12α-trihydroxy-23-(β-carboxyethyl-[^75 Se]seleno)-24-nor-5β-cholane]: the “whole body retention by tissue distribution (dissection)” value in data set [3] is reported as roughly 5.5%. Besides, the “whole body retention by tissue distribution (dissection)” value in data set [3] (listed as tri-hydroxy compound) is on record as “approximately 5.5%”. In addition, in data set [4], the “b (amplitude of second component)” value was determined as 42.5%, the “c (constant; percentage predicted as never being excreted)” value is recorded as 15.5%, the “x (rate constant of first component)” value is 2.77 day⁻¹ and the “y (rate constant of second component)” value amounted to 0.66 day⁻¹. Also, the “a (amplitude of first component, Retention(t)=ae^-xt+be^-yt+c)” value in data set [4] came out at 260%.

With `CC([75Se]CC(=O)O)[C@H]1CC[C@H]2[C@@H]3[C@H](O)C[C@@H]4C[C@H](O)CC[C@]4(C)[C@H]3C[C@H](O)[C@]12C` (stereo partly drawn) [v, 3α,7α,12α-trihydroxy-20-(carboxymethyl-[^75 Se]seleno)-5β-pregnane], in data set [4], the “b (amplitude of second component)” value was 16.5%, the “c (constant; percentage predicted as never being excreted)” value was 0.8%, the “x (rate constant of first component)” value came out at 2.52 day⁻¹ and the “y (rate constant of second component)” value came out at 0.38 day⁻¹. Moreover, the “a (amplitude of first component, Retention(t)=ae^-xt+be^-yt+c)” value in data set [4] was 98%.

Regarding `CC([75Se]CC(=O)NCC(=O)O)[C@H]1CC[C@H]2[C@@H]3[C@H](O)C[C@@H]4C[C@H](O)CC[C@]4(C)[C@H]3C[C@H](O)[C@]12C` (some centres unmarked) [vi, Glyco-22-[^75 Se]selenacholic acid], in data set [4], the “b (amplitude of second component)” value came out at 7.2%, the “c (constant; percentage predicted as never being excreted)” value is listed as 0.58%, the “x (rate constant of first component)” value was 1.54 day⁻¹ and the “y (rate constant of second component)” value came to 0.54 day⁻¹. In addition, the “a (amplitude of first component, Retention(t)=ae^-xt+be^-yt+c)” value in data set [4] turned out to be 221%.

As for `C[C@H](CCC[75Se]CC(=O)O)[C@H]1CC[C@H]2[C@@H]3CC[C@@H]4C[C@H](O)CC[C@]4(C)[C@H]3CC[C@]12C` [vii, 3α-hydroxy-24-(carboxymethyl-[^75 Se]seleno)-5β-cholane], in data set [4], the “b (amplitude of second component)” value was found to be 11.8%, the “c (constant; percentage predicted as never being excreted)” value is recorded as 2.85%, the “x (rate constant of first component)” value stood at 2.29 day⁻¹ and the “y (rate constant of second component)” value came out at 0.44 day⁻¹. Besides, the “a (amplitude of first component, Retention(t)=ae^-xt+be^-yt+c)” value in data set [4] is reported as 203%.

As to `C[C@H](CC[123Te]CC(=O)O)[C@H]1CC[C@H]2[C@@H]3CC[C@@H]4C[C@H](O)CC[C@]4(C)[C@H]3C[C@H](O)[C@]12C` [viii, 3α,12α-dihydroxy-23-(carboxymethyl-[^123m Te]telluro)-24-nor-5β-cholane], in data set [4], the “b (amplitude of second component)” value is recorded as 6.3%, the “c (constant; percentage predicted as never being excreted)” value is 1.3%, the “x (rate constant of first component)” value came out at 2.26 day⁻¹ and the “y (rate constant of second component)” value stood at 0.43 day⁻¹. For the same compound, the “a (amplitude of first component, Retention(t)=ae^-xt+be^-yt+c)” value in data set [4] was 173%.
